Measured values as given in patent publication US9340600B2 (Indiana University Research and Technology Corporation, priority 2012, dated 2016).
*1 amine or outer side, *2 acyl side, *3 side chain or, on linkers, in order; H or OH if unused. Where a SMILES comes first, the peptide text is derived from it. Where no end group is shown, it is not given here. Side-chain parts run from the residue outwards. [ ]: non-standard residue; d: D form. The star is where a group is joined. γGlu = O=C(O)[C@H](CCC(=O)[*:2])N[*:1]; Palmitoyl = CCCCCCCCCCCCCCCC(=O)*; Aib = CC(C)(N)C(=O)O

Legend:
Type in all cases: cell-based
GLP-1 receptor = target: T1, GLP-1 receptor (Homo sapiens, UniProt P43220); assay: cAMP induction, firefly luciferase-based reporter assay in HEK293 cells co-transfected with GLP-1 receptor; settings: EC50 at GLP-1 Receptor
T1 construct: expressed in transfected cells; host or cells: HEK293
Excerpt: (§1) This example describes an exemplary method of testing the biological activity of the peptides of the present disclosures, which method involves assaying cAMP synthesis.

GIP receptor = target: T2, GIP receptor (Homo sapiens, UniProt P48546); assay: cAMP induction, firefly luciferase-based reporter assay in HEK293 cells co-transfected with GIP receptor; settings: EC50 at GIP Receptor
T2 construct: expressed in transfected cells; host or cells: HEK293
T2 sequence (P48546 22-466): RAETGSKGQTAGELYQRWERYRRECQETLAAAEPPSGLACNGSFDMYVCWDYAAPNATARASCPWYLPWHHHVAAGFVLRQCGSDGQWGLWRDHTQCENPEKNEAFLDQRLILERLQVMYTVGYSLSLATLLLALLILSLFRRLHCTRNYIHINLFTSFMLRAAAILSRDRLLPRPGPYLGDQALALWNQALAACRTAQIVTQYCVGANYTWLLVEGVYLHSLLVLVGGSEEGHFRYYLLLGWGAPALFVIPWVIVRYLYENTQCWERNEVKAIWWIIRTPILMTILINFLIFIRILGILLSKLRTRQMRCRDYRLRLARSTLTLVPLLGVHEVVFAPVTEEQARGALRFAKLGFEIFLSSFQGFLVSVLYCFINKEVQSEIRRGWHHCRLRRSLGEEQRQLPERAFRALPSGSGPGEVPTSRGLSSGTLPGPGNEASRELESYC
Excerpt: as §1

glucagon receptor = target: T3, glucagon receptor (Homo sapiens, UniProt P47871); assay: cAMP induction, firefly luciferase-based reporter assay in HEK293 cells co-transfected with glucagon receptor; settings: EC50 at Glucagon Receptor
T3 construct: expressed in transfected cells; host or cells: HEK293
Excerpt: as §1

[1] = Table 2, analogs of SEQ ID NO: 18 varying at positions 16-21
[2] = Table 3, analogs of SEQ ID NO: 18 varying at position 3

T1 sequence (P43220 24-463): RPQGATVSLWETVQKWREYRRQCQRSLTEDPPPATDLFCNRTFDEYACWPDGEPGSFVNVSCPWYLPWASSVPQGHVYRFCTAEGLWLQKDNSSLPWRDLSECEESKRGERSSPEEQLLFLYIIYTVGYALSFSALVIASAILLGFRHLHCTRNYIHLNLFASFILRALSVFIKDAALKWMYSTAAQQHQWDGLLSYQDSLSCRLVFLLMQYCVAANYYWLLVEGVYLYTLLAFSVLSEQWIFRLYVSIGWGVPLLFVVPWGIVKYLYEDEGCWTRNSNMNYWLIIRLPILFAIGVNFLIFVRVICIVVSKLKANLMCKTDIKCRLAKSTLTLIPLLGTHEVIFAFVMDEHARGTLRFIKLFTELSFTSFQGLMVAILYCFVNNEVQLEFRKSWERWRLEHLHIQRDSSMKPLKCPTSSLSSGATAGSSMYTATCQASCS
T3 sequence (P47871 26-477): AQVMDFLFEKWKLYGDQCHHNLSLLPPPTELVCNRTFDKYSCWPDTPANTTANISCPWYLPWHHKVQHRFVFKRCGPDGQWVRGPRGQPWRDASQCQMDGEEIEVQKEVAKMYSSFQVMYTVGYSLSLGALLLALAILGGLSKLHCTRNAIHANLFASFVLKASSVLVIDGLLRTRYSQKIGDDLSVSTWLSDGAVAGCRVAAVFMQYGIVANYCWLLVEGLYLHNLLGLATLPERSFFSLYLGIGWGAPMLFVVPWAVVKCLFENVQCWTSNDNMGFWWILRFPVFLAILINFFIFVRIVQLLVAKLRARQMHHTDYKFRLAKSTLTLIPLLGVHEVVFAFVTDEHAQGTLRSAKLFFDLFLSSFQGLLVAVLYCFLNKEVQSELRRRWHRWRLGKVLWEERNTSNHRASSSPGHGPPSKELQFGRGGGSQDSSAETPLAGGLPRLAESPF

Compound | EC50 (GLP-1 receptor; Table 1) [pM] | EC50 (GLP-1 receptor; [1]) [pM] | EC50 (GIP receptor; [1]) [pM] | EC50 (glucagon receptor; [1]) [pM] | further results
CCCCCCCCCCCCCCCC(=O)N[C@@H](CCC(=O)NCCCC[C@H](NC(=O)[C@H](CC(=O)O)NC(=O)[C@H](CO)NC(=O)[C@@H](NC(=O)[C@H](Cc1ccccc1)NC(=O)[C@@H](NC(=O)CNC(=O)[C@H](CCC(N)=O)NC(=O)C(C)(C)NC(=O)[C@@H](N)Cc1c[nH]cn1)[C@@H](C)O)[C@@H](C)O)C(=O)N[C@@H](CO)C(=O)N[C@@H](CCCCN)C(=O)N[C@@H](Cc1ccc(O)cc1)C(=O)N[C@@H](CC(C)C)C(=O)N[C@@H](CCC(=O)O)C(=O)N[C@@H](CCC(=O)O)C(=O)N[C@@H](CCCNC(=N)N)C(=O)N[C@@H](C)C(=O)N[C@@H](C)C(=O)N[C@@H](CCC(N)=O)C(=O)N[C@@H](CCC(=O)O)C(=O)N[C@@H](Cc1ccccc1)C(=O)N[C@H](C(=O)N[C@@H](CCC(N)=O)C(=O)N[C@@H](Cc1c[nH]c2ccccc12)C(=O)N[C@@H](CC(C)C)C(=O)N[C@@H](CC(C)C)C(=O)N[C@@H](CCC(=O)O)C(=O)NCC(=O)NCC(=O)N1CCC[C@H]1C(=O)N[C@@H](CO)C(=O)N[C@@H](CO)C(=O)NCC(=O)N[C@@H](C)C(=O)N1CCC[C@H]1C(=O)N1CCC[C@H]1C(=O)N1CCC[C@H]1C(=O)N[C@@H](CO)C(N)=O)C(C)C)C(=O)O [compound 18] (H-H[Aib]QGTFTSDK([γGlu-Palmitoyl])SKYLEERAAQEFVQWLLEGGPSSGAPPPS-NH2) | 8 | 10 | 4 | 5 | EC50 (GIP receptor; [2]): 4 pM; EC50 (glucagon receptor; [2]): 5 pM
CCCCCCCCCCCCCCCC(=O)N[C@@H](CCC(=O)NCCCC[C@H](NC(=O)[C@H](CC(=O)O)NC(=O)[C@H](CO)NC(=O)[C@@H](NC(=O)[C@H](Cc1ccccc1)NC(=O)[C@@H](NC(=O)CNC(=O)[C@H](CCC(N)=O)NC(=O)C(C)(C)NC(=O)[C@@H](N)Cc1c[nH]cn1)[C@@H](C)O)[C@@H](C)O)C(=O)N[C@@H](CO)C(=O)N[C@@H](CCCCN)C(=O)N[C@@H](Cc1ccc(O)cc1)C(=O)N[C@@H](CC(C)C)C(=O)N[C@@H](CC(=O)O)C(=O)N[C@@H](CCC(=O)O)C(=O)N[C@@H](CCCNC(=N)N)C(=O)N[C@@H](C)C(=O)N[C@@H](C)C(=O)N[C@@H](Cc1c[nH]cn1)C(=O)N[C@@H](CC(=O)O)C(=O)N[C@@H](Cc1ccccc1)C(=O)N[C@H](C(=O)N[C@@H](CCC(N)=O)C(=O)N[C@@H](Cc1c[nH]c2ccccc12)C(=O)N[C@@H](CC(C)C)C(=O)N[C@@H](CC(C)C)C(=O)N[C@@H](CC(=O)O)C(=O)NCC(=O)NCC(=O)N1CCC[C@H]1C(=O)N[C@@H](CO)C(=O)N[C@@H](CO)C(=O)NCC(=O)N[C@@H](C)C(=O)N1CCC[C@H]1C(=O)N1CCC[C@H]1C(=O)N1CCC[C@H]1C(=O)N[C@@H](CO)C(N)=O)C(C)C)C(=O)O [compound 19] (H-H[Aib]QGTFTSDK([γGlu-Palmitoyl])SKYLDERAAHDFVQWLLDGGPSSGAPPPS-NH2) | – | 18 | 15 | 12 | –
CCCCCCCCCCCCCCCC(=O)N[C@@H](CCC(=O)NCCCC[C@H](NC(=O)[C@H](CC(=O)O)NC(=O)[C@H](CO)NC(=O)[C@@H](NC(=O)[C@H](Cc1ccccc1)NC(=O)[C@@H](NC(=O)CNC(=O)[C@H](CCC(N)=O)NC(=O)C(C)(C)NC(=O)[C@@H](N)Cc1c[nH]cn1)[C@@H](C)O)[C@@H](C)O)C(=O)N[C@@H](CO)C(=O)N[C@@H](CCCCN)C(=O)N[C@@H](Cc1ccc(O)cc1)C(=O)N[C@@H](CC(C)C)C(=O)N[C@@H](CC(=O)O)C(=O)N[C@@H](CCC(=O)O)C(=O)N[C@@H](CCCNC(=N)N)C(=O)N[C@@H](C)C(=O)N[C@@H](C)C(=O)N[C@@H](CCCCN)C(=O)N[C@@H](CC(=O)O)C(=O)N[C@@H](Cc1ccccc1)C(=O)N[C@H](C(=O)N[C@@H](CCC(N)=O)C(=O)N[C@@H](Cc1c[nH]c2ccccc12)C(=O)N[C@@H](CC(C)C)C(=O)N[C@@H](CC(C)C)C(=O)N[C@@H](CC(=O)O)C(=O)NCC(=O)NCC(=O)N1CCC[C@H]1C(=O)N[C@@H](CO)C(=O)N[C@@H](CO)C(=O)NCC(=O)N[C@@H](C)C(=O)N1CCC[C@H]1C(=O)N1CCC[C@H]1C(=O)N1CCC[C@H]1C(=O)N[C@@H](CO)C(N)=O)C(C)C)C(=O)O [compound 20] (H-H[Aib]QGTFTSDK([γGlu-Palmitoyl])SKYLDERAAKDFVQWLLDGGPSSGAPPPS-NH2; N-terminus assumed) | – | 10 | 5 | 6 | –
CCCCCCCCCCCCCCCC(=O)N[C@@H](CCC(=O)NCCCC[C@H](NC(=O)[C@H](CC(=O)O)NC(=O)[C@H](CO)NC(=O)[C@@H](NC(=O)[C@H](Cc1ccccc1)NC(=O)[C@@H](NC(=O)CNC(=O)[C@H](CCC(N)=O)NC(=O)C(C)(C)NC(=O)[C@@H](N)Cc1c[nH]cn1)[C@@H](C)O)[C@@H](C)O)C(=O)N[C@@H](CO)C(=O)N[C@@H](CCCCN)C(=O)N[C@@H](Cc1ccc(O)cc1)C(=O)N[C@@H](CC(C)C)C(=O)N[C@@H](CC(=O)O)C(=O)N[C@@H](CCC(=O)O)C(=O)N[C@@H](CCCNC(=N)N)C(=O)N[C@@H](C)C(=O)N[C@@H](C)C(=O)NC(C)(C)C(=O)N[C@@H](CCC(=O)O)C(=O)N[C@@H](Cc1ccccc1)C(=O)N[C@H](C(=O)N[C@@H](CCC(N)=O)C(=O)N[C@@H](Cc1c[nH]c2ccccc12)C(=O)N[C@@H](CC(C)C)C(=O)N[C@@H](CC(C)C)C(=O)N[C@@H](CC(=O)O)C(=O)NCC(=O)NCC(=O)N1CCC[C@H]1C(=O)N[C@@H](CO)C(=O)N[C@@H](CO)C(=O)NCC(=O)N[C@@H](C)C(=O)N1CCC[C@H]1C(=O)N1CCC[C@H]1C(=O)N1CCC[C@H]1C(=O)N[C@@H](CO)C(N)=O)C(C)C)C(=O)O [compound 21] (H-H[Aib]QGTFTSDK([γGlu-Palmitoyl])SKYLDERAA[Aib]EFVQWLLDGGPSSGAPPPS-NH2; N-terminus assumed) | – | 4 | 1 | 2 | –
CCCCCCCCCCCCCCCC(=O)N[C@@H](CCC(=O)NCCCC[C@H](NC(=O)[C@H](CC(=O)O)NC(=O)[C@H](CO)NC(=O)[C@@H](NC(=O)[C@H](Cc1ccccc1)NC(=O)[C@@H](NC(=O)CNC(=O)[C@H](CCC(N)=O)NC(=O)C(C)(C)NC(=O)[C@@H](N)Cc1c[nH]cn1)[C@@H](C)O)[C@@H](C)O)C(=O)N[C@@H](CO)C(=O)N[C@@H](CCCCN)C(=O)N[C@@H](Cc1ccc(O)cc1)C(=O)N[C@@H](CC(C)C)C(=O)N[C@@H](CC(=O)O)C(=O)N[C@@H](C)C(=O)N[C@@H](CCCNC(=N)N)C(=O)N[C@@H](C)C(=O)N[C@@H](C)C(=O)NC(C)(C)C(=O)N[C@@H](CCC(=O)O)C(=O)N[C@@H](Cc1ccccc1)C(=O)N[C@H](C(=O)N[C@@H](CCC(N)=O)C(=O)N[C@@H](Cc1c[nH]c2ccccc12)C(=O)N[C@@H](CC(C)C)C(=O)N[C@@H](CC(C)C)C(=O)N[C@@H](CC(=O)O)C(=O)NCC(=O)NCC(=O)N1CCC[C@H]1C(=O)N[C@@H](CO)C(=O)N[C@@H](CO)C(=O)NCC(=O)N[C@@H](C)C(=O)N1CCC[C@H]1C(=O)N1CCC[C@H]1C(=O)N1CCC[C@H]1C(=O)N[C@@H](CO)C(N)=O)C(C)C)C(=O)O [compound 22] (H-H[Aib]QGTFTSDK([γGlu-Palmitoyl])SKYLDARAA[Aib]EFVQWLLDGGPSSGAPPPS-NH2) | – | 11 | 4 | 5 | –
CCCCCCCCCCCCCCCC(=O)N[C@@H](CCC(=O)NCCCC[C@H](NC(=O)[C@H](CC(=O)O)NC(=O)[C@H](CO)NC(=O)[C@@H](NC(=O)[C@H](Cc1ccccc1)NC(=O)[C@@H](NC(=O)CNC(=O)[C@H](CCC(=O)O)NC(=O)C(C)(C)NC(=O)[C@@H](N)Cc1c[nH]cn1)[C@@H](C)O)[C@@H](C)O)C(=O)N[C@@H](CO)C(=O)N[C@@H](CCCCN)C(=O)N[C@@H](Cc1ccc(O)cc1)C(=O)N[C@@H](CC(C)C)C(=O)N[C@@H](CC(=O)O)C(=O)N[C@@H](CCC(=O)O)C(=O)N[C@@H](CCCNC(=N)N)C(=O)N[C@@H](C)C(=O)N[C@@H](C)C(=O)N[C@@H](CCC(N)=O)C(=O)N[C@@H](CC(=O)O)C(=O)N[C@@H](Cc1ccccc1)C(=O)N[C@H](C(=O)N[C@@H](CCC(N)=O)C(=O)N[C@@H](Cc1c[nH]c2ccccc12)C(=O)N[C@@H](CC(C)C)C(=O)N[C@@H](CC(C)C)C(=O)N[C@@H](CCC(=O)O)C(=O)NCC(=O)NCC(=O)N1CCC[C@H]1C(=O)N[C@@H](CO)C(=O)N[C@@H](CO)C(=O)NCC(=O)N[C@@H](C)C(=O)N1CCC[C@H]1C(=O)N1CCC[C@H]1C(=O)N1CCC[C@H]1C(=O)N[C@@H](CO)C(N)=O)C(C)C)C(=O)O [compound 44] (H-H[Aib]EGTFTSDK([γGlu-Palmitoyl])SKYLDERAAQDFVQWLLEGGPSSGAPPPS-NH2) | 7 | – | – | – | –
H-H[Aib]QGTFTSDYSKYLEERAAQDFVQWLLDGGPSSGAPPPSK([γGlu-γGlu-Palmitoyl])G-NH2 [compound 15] | 3 | – | – | – | EC50 (glucagon receptor; Table 1): 5 pM
H-H[Aib]QGTFTSEYSKYLDERAAQDFVQWLLDGGPSSGAPPPSK([γGlu-γGlu-Palmitoyl])G-NH2 [compound 16] | 2 | – | – | – | –
H[Aib]QGTFTSDYAKYLDERAAQDFVQWLLDGGPSSGAPPPSK([γGlu-γGlu-Palmitoyl])G-NH2 [compound 17] | 8 | – | – | – | EC50 (GIP receptor; Table 1): 20 pM
